In a melting point compilation (Tetko et al.; mined from patent text by program, amines drawn as free bases though some values may be those of a salt):

Compound | melting point [°C]
COc1cccc(NC(NC(C)C(C)(C)C)=C(C#N)S(=O)(=O)C(C)C)c1 (stereo not given) | 59 to 62
NC(Cc1ccccc1)c1ccc(Cl)cc1 (stereo not given) | 35 to 36
CC(C)(C)NS(=O)(=O)c1cc([N+](=O)[O-])ccc1Cl | 168 to 171
CSc1cc2c(cc1C(F)(F)F)N(C(=O)Nc1cccc(C(=O)CCCN(C)C)c1)CC2 | 178 to 180
NC(=O)c1cccc(OCCCCCBr)c1 | 98 to 99
CN1CCCNC1=C[N+](=O)[O-] | 114 to 115
NC1CSC(c2ccsc2)CNC1=O (stereo not given) | 190 to 191
COc1nc(C)n2nc(S(=O)(=O)Cl)nc2c1Cl | 100 to 101
CC(C)Cc1ccc(C(C)C(=O)ON(C(N)=O)C(C)c2ccoc2)cc1 (stereo not given) | 55 to 59
CCCCCCCCOc1c(Cl)c(Sc2ccccc2N)c(OCCCCCCCC)c2c1C(=N)NC2=N | 97 to 99
CC(C)CCC1(C(F)(F)F)NC(=O)Nc2ccc(F)cc21 (racemic) | 179
Cc1cccc2c1nc(-c1c(F)cccc1F)n2Cc1c(F)c(F)c(F)c(F)c1F | 155 to 156
Cc1cc(Oc2c(Cl)cc(C(F)(F)F)cc2Cl)nn1C(=O)NCC=O | 111 to 113
C=C1CCCCCCCSC[C@@H](C(=O)O)NC1=O | 184 to 186
COc1ccc(C(=O)CCCCCl)cc1S(N)(=O)=O | 135 to 136
N#CSc1c(C2CC2)[nH]c(Cl)c1C#N | 123
O=[N+]([O-])c1c(Cl)nc(C2CC2)nc1Cl | 50 to 52
NCCNc1cc(NCCO)c(Cl)cc1[N+](=O)[O-] | 160
C#CCn1c(-c2cc(Cl)nc(Cl)c2)nc(OS(=O)(=O)C(F)(F)F)c(CC)c1=O | 112 to 114
COC(=O)c1ccc(-c2cc(-c3ccc4c(c3)C(C)(C)CCC4(C)C)[nH]n2)cc1 | 155 to 156
CCCCCC1OCc2cc(C(=O)Oc3ccc(CCC)cc3)ccc2O1 (stereo not given) | 97.5
COC(=O)c1cnc(CO)n1C(c1ccccc1)c1ccccc1 | 160
CC(C)(CCl)C(=O)NCc1ccc(Cl)cc1 | 97 to 98
CCCCCCCCCCCCCCOc1ccc(CC(=O)Nc2cccc(CBr)c2)cc1 | 116 to 118
CC(=O)Oc1ccc(C2CC(=O)OC(=O)C2)cc1 | 140 to 143
CCCOc1ccc(COCC)cc1-c1nc2c(CCC)nn(C)c2c(=O)[nH]1 | 89 to 90
CC(C)(C)c1cc(C=O)cc(Cl)c1O | 123

Compound | melting point [°C]
O=C1N=NC(c2nc(Cl)c(Cl)[nH]2)=N1 | 176 to 178
CC(=S)Nc1ccc[nH]1 | 93 to 94
Cc1c(C(=O)O)nc2c(cc(C)c3nc(C(=O)O)c(C)c(O)c32)c1O | 205 to 206
Cc1ccc(C(=O)NC(NC(=S)Nc2cccc(C(F)(F)F)c2F)C(F)(F)F)cc1 (stereo not given) | 179 to 181
Cc1cc2c(-c3cccc(C(=O)O)c3)c(CC(=O)Nc3ccc(Cl)cc3C(F)(F)F)c(=O)oc2cc1Cl | 270 to 272
Cc1cc(N2NCCNC2=O)cc(Cl)c1Cc1ccc(Cl)cc1 | 197 to 198
COC(=O)C(=O)NCCCCCC1CCSS1 (stereo not given) | 42 to 43
Cn1c2c(cnc3c(N)cccc32)c(=O)n1C(=O)OC(C)(C)C | > 250
O=C(O)C1=Cc2cc(CO)ccc2OC1CC(F)(F)F (stereo not given) | 178 to 181
CCCCCCCCCCCCCCCCCCOc1cn(Cc2ccccc2)c(CO)cc1=O | 120 to 121
Cc1cccc(CCc2c(C(C)C)nc(C(C)C)c(CO)c2-c2ccc(F)cc2)c1 | 148 to 150
OCCc1c[nH]c2ccc(O)cc12 | 98 to 102
CC#Cc1ccc2[nH]c(C(=O)OCC)cc2c1 | 166 to 167
CC(I)CC(F)(F)C(F)(F)C(F)(F)C(F)(F)C(F)(F)C(F)(F)CC(C)I (stereo not given) | 53
Cc1cc(-c2ccc(Cl)cc2)cnc1N=CN(C)C | 99
N=C(N)Nc1nc(CSCCC2=NS(=O)(=O)NC(N)=N2)cs1 | 175 to 192
CCOC(=O)c1cnc2sccc2c1Cl | 71 to 72
O=[N+]([O-])c1ccc(F)c(-c2cccs2)c1 | 65
CCCCCC(C)C(C)c1cc(O)c2c(c1)OC(C)(C)C1=C2CN(CC(=O)NC(=O)NC)CC1 (stereo not given) | 145 to 147
Cc1cc(C=C2SCNC2=O)cc(C(C)(C)C)c1O | 162 to 165
NC(=O)c1c(Br)cc(Br)c(C(=O)O)c1Br | > 280
COc1ccc([C@@H]2Sc3cc(Cl)ccc3N(CCN(C)C)C(=O)[C@@H]2OCC(=O)OC(C)(C)C)cc1 | 83 to 84
COC(=O)c1cc(CCNC(=O)C(F)(F)F)ccc1OC | 61 to 63
ON1Cc2ccccc2C1=S | 110 to 111
CC(C)(c1ccc(Oc2ccc([N+](=O)[O-])cc2C(F)(F)F)cc1)c1cccc(C(C)(C)c2ccc(Oc3ccc([N+](=O)[O-])cc3C(F)(F)F)cc2)c1 | 127 to 128
CC(=O)SC(Cc1ccc(F)cc1)C(=O)O (stereo not given) | 44 to 46

Now from value to compound:

melting point [°C] | Compound
148 to 150 | Cc1cccc(-c2ccc(O)cc2C=O)c1
85 to 90 | Cc1noc(NS(=O)(=O)c2ccccc2-c2ccc(-c3ccon3)cc2)c1C
110 to 112 | CCc1c(Cc2ccccc2)oc2c(C(=O)NCCCN3CCN(c4ccccc4OC)CC3)cccc12
214 to 216 | Cn1cnc(-c2ccccc2)c1-c1nn(-c2cccc(C(F)(F)F)c2)ccc1=O
78.7 to 79.2 | OCc1ncccc1OCc1ccccc1
159 to 163 | NC(=NO)c1cc2c(cn1)[nH]c1ccccc12
66 to 69 | O=C(NCCO)/C(=C/c1ccc(OC2CC2)cc1)NC(=O)c1ccc(OCCc2ccc(Cl)cc2)cc1
134 to 135 | CCCc1nc2c(N)nc3ccccc3c2n1CCCCCC(=O)N(C)OC
173 to 174 | Cc1oc(C2CCCCC2)nc1C(=O)O
157 to 158 | Cc1cccc(-c2nc3cccnn3c2-c2ccnc(NCC(C)(C)C)c2)c1
> 260 | COc1ccccc1C(CCNC(C)(C)C)c1cc(Cl)ccc1OC (stereo not given)
82 to 83 | N#Cc1ccc(OCc2ccc(F)cc2)cc1
38 to 40 | Cc1nnc(-c2ccccc2OCC2CO2)o1 (stereo not given)
116 to 117 | Cc1oc(-c2ccccc2)nc1COc1ccc(/C=C/CO)cn1
96 to 97.5 | CCOC(=O)CSc1nc(Cl)cc(Nc2ccc(OC)cc2)n1
86 | CCOCC(O)(c1cccnc1)C(C)c1ccc(Cl)cc1Cl (stereo not given)
83 | COc1cccc(C=C2c3ccccc3CCc3ccccc32)c1
189 to 190 | CC(C)(C)c1cc(CCc2ccccc2NC(=O)NCc2ccccn2)cc(C(C)(C)C)c1O
35 to 36 | CCCSc1cc(OCc2ccc(Cl)cc2)ccc1C
58 to 59 | Cc1cccc(OC(=O)N2CCCC2=O)c1
78 to 80 | COc1ccc(N)c(C2OCCO2)c1OC
132 | CC(=O)N1CCC(C)(C)c2c(C)ccc(CCN3CCN(c4nsc5ccccc45)CC3)c21
114 to 116 | CCCc1cc(Cl)c2sc(Cc3ccc(OC)cc3)c(C)c2c1O
107 to 109 | Cc1nc2c3c(ccn2c1C)C(OCCO)C(O)C(c1ccccc1)N3 (stereo not given)
302 to 305 | O=C1NCc2c1cc1ccc3c(c1c2-c1ccc(F)cc1)OCC3
202 to 204 | Cn1ncc2c1-c1c(Oc3ccc4c(c3)OCO4)sc(C(=O)NCc3ccncc3)c1CC2

melting point [°C] | Compound
51 to 56 | CON(C)C(=O)c1c(COC2CCCCO2)noc1-c1ccccc1Cl (stereo not given)
225 to 226 | O=C(O)c1cccc(-n2cc(-c3ccccc3F)cn2)c1
247 to 249 | COc1cccc(Nc2ncc(C(=O)O)c(=O)[nH]2)c1
105 to 108 | CC(C)Nc1cccnc1N1CCN(C(=O)c2ccc(C(=O)NCCCn3ccnc3)cn2)CC1
98 to 99 | CNCCC(O)(COc1ccccc1)c1ccccc1 (stereo not given)
187 to 188 | COc1ccc2cnc(Nc3ccccc3)nc2c1C1CCCC1
158 to 160 | Cc1c(SCCN)ccnc1CSc1nc2ccccc2[nH]1
85 to 86 | COc1nc2ccc(Br)cc2cc1C(Br)c1ccccc1 (stereo not given)
120 to 122 | O=c1c2cccnc2c(-c2cccc(Cl)c2)cn1CC1CC1
95 to 96.5 | O=C(O)Cc1cc(Cl)ccc1OCCCc1ccccc1
127 to 129 | COc1cc2c(cc1Br)-c1cc3c(n1CC2)C(=O)N(C(C)(C)C)CCCC3
228 to 229 | O=C(Nc1ccc2cc(CN3CCCCC3)ccc2c1)c1ccc(-c2ccc(Cl)cc2)nc1
134 to 135 | CCCc1ccc(C(=O)O)c2ccccc12
155 to 165 | CCCC(=O)NS(=O)(=O)c1ccc(C(=O)C=Cc2cc(-c3cc4ccccc4[nH]3)c(OC)cc2OC)cc1
39 to 41 | c1ccc(CNn2cccc2)cc1
96 to 98 | CNC(=O)C(=NOC)C1=C(COc2ccccc2C)CC(C)=C(C)C1
73 to 74 | O=Cc1cc(Cl)ccc1OCCc1ccccc1
177 to 180 | CC1(C)Oc2ccc(C#N)cc2C(OC(=O)C2CCCN2S(=O)(=O)c2ccc([N+](=O)[O-])cc2)C1Br (stereo not given)
89 to 91 | COc1cc(Br)cc(C23CC4CC(CC(C4)C2)C3)c1OCc1ccccc1
87 to 91 | COC(=O)Cc1nc(-c2ccccc2)c(-c2ccccc2)o1
242 | CCOc1cc(C(C)C)ccc1C1CCN(CCCCNC(=O)c2ccc(NC(=O)c3ccc(Cl)cc3)cc2)CC1
236 to 237 | CCOC(=O)c1ccc(NC(=O)C2Cc3cc(SC)ccc3C(=O)CS2)cc1 (stereo not given)
184 | CC(C)N(CCCC1CCN(CCNC(=O)N2c3ccccc3C(=O)Nc3cccnc32)CC1)C(C)C
154 to 157 | CCCC(=O)Nc1cc2c(s1)CCN(C(C(=O)C1CC1)c1ccccc1F)C2 (stereo not given)
161 | Cc1ccccc1S(=O)(=O)n1c(CCCC(=O)O)cc2nc(Cl)ccc21
112 to 114 | CC(c1cccc(C2(c3ccccc3)OCCO2)c1)c1nc(N)no1 (stereo not given)
